From patent US20200046870A1, “MATERIALS COMPRISING HYDROPHOBICALLY-MODIFIED BIOPOLYMER” (GEL-E LIFE SCIENCES, priority 2016, published 2020)

Test system: Methicillin-resistant Staphylococcus aureus (MRSA)
Assay: antimicrobial properties against MRSA (log killing)
Assay type: cell-based
Conditions: high dose (100 μg/ml)
Description: FIG. 2 compares the antimicrobial properties of chitosan and hydrophobically modified chitosan, alongside ampicillin, against Methicillin-resistant Staphylococcus aureus (MRSA). Hm-chitosan at 0.5 wt % achieves a log killing of >2, whereas native chitosan (0.5 wt %) achieves a log killing of ˜1. In contrast, ampicillin at high dose (100 μg/ml) achieves only ˜0.5 log killing.

Q: Which log killing does the source give for `CC1(C)S[C@@H]2[C@H](NC(=O)[C@H](N)c3ccccc3)C(=O)N2[C@H]1C(=O)O` [ampicillin] here?
A: Its log killing is ~0.5 log.
